Assays:
[1] = target: Beta-3 adrenergic receptor (Homo sapiens, UniProt P13945); assay: DRUGMATRIX: Adrenergic beta3 radioligand binding (ligand: [125I] Cyanopindolol); type: cell membranes, HEK293, Membrane; settings: hek293; Not Active = under 50% inhibition at 10 µM
[2] = target: T1, Adenosine receptor A3 (Homo sapiens, UniProt P0DMS8); type: cell membranes, CHO-K1, Membrane; settings: cho-k1;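 also: radioligand binding assay with AB-MECA serving as the labeled ligand; in other assays of this panel Not Active means under 50% inhibition at 10 µM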
T1 sequence (P0DMS8 whole entry): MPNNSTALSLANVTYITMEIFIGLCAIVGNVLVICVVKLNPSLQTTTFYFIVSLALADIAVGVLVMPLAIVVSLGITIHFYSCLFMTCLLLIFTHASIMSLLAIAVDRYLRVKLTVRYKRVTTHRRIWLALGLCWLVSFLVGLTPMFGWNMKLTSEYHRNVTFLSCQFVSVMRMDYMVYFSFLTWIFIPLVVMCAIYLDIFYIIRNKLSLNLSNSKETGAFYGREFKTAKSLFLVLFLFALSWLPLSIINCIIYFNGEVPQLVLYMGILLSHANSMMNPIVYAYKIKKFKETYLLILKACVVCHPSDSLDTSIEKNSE

[3] = DRUGMATRIX: Leukotriene, BLT (LTB4) radioligand binding (ligand: [3H]LTB4); type: cell membranes, Membrane; settings: u-937; Not Active = under 50% inhibition at 10 µM
[4] = target: T2, Vasoactive intestinal polypeptide receptor 1 (Homo sapiens, UniProt P32241); type: cell membranes, Membrane; settings: ht-29; also: in other assays of this panel Not Active means under 50% inhibition at 10 µM
T2 sequence (P32241 whole entry): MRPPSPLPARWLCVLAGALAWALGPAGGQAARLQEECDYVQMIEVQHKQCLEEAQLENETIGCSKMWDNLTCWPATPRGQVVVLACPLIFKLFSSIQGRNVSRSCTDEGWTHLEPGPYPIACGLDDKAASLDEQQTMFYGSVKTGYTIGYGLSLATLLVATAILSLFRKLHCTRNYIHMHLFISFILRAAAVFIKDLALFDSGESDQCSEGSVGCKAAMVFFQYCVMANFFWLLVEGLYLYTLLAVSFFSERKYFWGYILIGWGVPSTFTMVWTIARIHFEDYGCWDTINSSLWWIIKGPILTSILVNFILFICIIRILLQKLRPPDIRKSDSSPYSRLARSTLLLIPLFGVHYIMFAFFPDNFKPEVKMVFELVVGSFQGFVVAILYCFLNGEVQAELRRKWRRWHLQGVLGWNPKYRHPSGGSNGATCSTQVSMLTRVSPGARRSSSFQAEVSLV

[5] = target: Cytochrome P450 2D6 (Homo sapiens, UniProt P10635); settings: bti-tn-5b1-4; also: in other assays of this panel Not Active means under 50% inhibition at 10 µM
[6] = target: T3, Cholecystokinin receptor type A (Homo sapiens, UniProt P32238); type: cell membranes, Membrane; settings: 1321-n1; also: in other assays of this panel Not Active means under 50% inhibition at 10 µM
T3 sequence (P32238 whole entry): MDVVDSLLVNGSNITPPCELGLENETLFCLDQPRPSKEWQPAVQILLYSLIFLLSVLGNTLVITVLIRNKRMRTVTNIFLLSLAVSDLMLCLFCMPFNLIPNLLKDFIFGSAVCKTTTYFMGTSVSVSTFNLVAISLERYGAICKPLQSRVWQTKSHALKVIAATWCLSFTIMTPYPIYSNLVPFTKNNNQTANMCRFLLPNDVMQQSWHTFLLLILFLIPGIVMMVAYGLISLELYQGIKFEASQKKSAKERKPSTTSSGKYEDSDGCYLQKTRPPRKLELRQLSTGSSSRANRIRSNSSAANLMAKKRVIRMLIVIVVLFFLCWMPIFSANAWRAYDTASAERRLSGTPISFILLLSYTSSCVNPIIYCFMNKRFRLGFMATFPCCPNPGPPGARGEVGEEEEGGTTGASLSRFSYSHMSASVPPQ

[7] = target: Estrogen receptor beta (Homo sapiens, UniProt Q92731); settings: sf9; also: in other assays of this panel Not Active means under 50% inhibition at 10 µM
[8] = target: Acetylcholinesterase (Homo sapiens, UniProt P22303); assay: DRUGMATRIX: Acetylcholinesterase enzyme inhibition (substrate: acetylthiocholine); type: cell-based, HEK293; settings: hek293; Not Active = under 50% inhibition at 10 µM
[9] = target: Mu-type opioid receptor (Homo sapiens, UniProt P35372); assay: DRUGMATRIX: Opiate mu (OP3, MOP) radioligand binding (ligand: [3H] Diprenorphine); type: cell membranes, CHO-K1, Membrane; settings: cho-k1; Not Active = under 50% inhibition at 10 µM
[10] = DRUGMATRIX: Interleukin IL-1 radioligand binding (ligand: [125I] interleukin 1beta); type: cell membranes, Membrane; settings: nih3t3; Not Active = under 50% inhibition at 10 µM
[11] = target: Delta-type opioid receptor (Homo sapiens, UniProt P41143); type: cell membranes, HEK293, Membrane; settings: hek293; also: in other assays of this panel Not Active means under 50% inhibition at 10 µM
[12] = target: T4, C-C chemokine receptor type 4 (Homo sapiens, UniProt P51679); type: cell membranes, Membrane; settings: chem-1; also: in other assays of this panel Not Active means under 50% inhibition at 10 µM
T4 sequence (P51679 whole entry): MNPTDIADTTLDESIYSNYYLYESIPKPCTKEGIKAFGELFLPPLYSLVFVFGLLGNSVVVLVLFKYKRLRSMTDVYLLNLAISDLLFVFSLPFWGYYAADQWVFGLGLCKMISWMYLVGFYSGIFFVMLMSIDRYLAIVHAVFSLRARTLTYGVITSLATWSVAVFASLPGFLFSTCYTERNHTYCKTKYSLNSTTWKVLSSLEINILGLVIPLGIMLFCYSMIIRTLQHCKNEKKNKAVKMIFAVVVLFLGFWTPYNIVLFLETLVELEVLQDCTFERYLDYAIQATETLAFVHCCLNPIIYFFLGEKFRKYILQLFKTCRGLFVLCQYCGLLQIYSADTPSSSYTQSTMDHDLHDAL

[13] = target: T5, D(4) dopamine receptor (Homo sapiens, UniProt P21917); assay: DRUGMATRIX: Dopamine D4.2 radioligand binding (ligand: [3H] Spiperone); type: cell membranes, CHO-K1, Membrane; settings: cho-k1; Not Active = under 50% inhibition at 10 µM
T5 sequence (P21917 whole entry): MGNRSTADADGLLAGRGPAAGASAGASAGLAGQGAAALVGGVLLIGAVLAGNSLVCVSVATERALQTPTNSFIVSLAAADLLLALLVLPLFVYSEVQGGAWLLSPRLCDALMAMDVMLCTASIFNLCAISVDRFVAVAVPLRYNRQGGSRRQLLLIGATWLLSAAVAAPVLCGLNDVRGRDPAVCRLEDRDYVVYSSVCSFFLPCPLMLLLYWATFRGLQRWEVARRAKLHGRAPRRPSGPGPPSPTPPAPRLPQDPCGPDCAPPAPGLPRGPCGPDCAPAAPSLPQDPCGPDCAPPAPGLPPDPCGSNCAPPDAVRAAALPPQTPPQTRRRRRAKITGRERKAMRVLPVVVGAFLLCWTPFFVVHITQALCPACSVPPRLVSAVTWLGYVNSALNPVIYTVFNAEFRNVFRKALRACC

Chain of Delta-type opioid receptor (P41143 whole entry): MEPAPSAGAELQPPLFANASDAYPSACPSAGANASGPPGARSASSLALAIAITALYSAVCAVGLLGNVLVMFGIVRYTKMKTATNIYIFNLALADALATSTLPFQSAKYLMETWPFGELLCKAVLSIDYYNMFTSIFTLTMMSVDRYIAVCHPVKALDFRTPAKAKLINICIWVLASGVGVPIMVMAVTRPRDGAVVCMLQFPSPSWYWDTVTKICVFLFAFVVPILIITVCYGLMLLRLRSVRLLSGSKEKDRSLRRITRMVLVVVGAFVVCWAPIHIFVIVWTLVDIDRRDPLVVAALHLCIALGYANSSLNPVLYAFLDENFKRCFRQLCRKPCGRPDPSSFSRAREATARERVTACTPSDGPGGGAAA
Chain of Cytochrome P450 2D6 (P10635 whole entry): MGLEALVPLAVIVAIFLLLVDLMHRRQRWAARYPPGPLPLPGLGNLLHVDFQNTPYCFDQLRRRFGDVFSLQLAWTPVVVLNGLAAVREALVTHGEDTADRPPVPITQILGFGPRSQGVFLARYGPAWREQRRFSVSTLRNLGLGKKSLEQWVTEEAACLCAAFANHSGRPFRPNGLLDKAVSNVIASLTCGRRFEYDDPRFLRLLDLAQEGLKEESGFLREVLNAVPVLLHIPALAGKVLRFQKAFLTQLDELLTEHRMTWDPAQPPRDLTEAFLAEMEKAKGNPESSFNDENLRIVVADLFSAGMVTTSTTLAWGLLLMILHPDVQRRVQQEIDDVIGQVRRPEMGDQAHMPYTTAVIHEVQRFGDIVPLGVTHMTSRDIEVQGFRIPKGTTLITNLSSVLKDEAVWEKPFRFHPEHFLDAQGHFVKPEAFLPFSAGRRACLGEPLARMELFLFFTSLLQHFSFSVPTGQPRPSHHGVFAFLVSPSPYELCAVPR
Chain of Beta-3 adrenergic receptor (P13945 whole entry): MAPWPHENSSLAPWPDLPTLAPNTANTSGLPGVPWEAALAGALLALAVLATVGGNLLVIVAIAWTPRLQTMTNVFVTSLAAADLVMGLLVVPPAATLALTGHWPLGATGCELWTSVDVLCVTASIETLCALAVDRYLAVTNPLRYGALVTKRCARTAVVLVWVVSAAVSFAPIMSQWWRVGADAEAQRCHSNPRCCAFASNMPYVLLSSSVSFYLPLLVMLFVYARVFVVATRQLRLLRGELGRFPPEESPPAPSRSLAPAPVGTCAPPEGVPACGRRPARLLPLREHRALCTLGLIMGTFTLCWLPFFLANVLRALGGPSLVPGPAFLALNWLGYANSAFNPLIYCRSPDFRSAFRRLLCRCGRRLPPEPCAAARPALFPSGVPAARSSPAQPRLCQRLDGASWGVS
Chain of Estrogen receptor beta (Q92731 whole entry): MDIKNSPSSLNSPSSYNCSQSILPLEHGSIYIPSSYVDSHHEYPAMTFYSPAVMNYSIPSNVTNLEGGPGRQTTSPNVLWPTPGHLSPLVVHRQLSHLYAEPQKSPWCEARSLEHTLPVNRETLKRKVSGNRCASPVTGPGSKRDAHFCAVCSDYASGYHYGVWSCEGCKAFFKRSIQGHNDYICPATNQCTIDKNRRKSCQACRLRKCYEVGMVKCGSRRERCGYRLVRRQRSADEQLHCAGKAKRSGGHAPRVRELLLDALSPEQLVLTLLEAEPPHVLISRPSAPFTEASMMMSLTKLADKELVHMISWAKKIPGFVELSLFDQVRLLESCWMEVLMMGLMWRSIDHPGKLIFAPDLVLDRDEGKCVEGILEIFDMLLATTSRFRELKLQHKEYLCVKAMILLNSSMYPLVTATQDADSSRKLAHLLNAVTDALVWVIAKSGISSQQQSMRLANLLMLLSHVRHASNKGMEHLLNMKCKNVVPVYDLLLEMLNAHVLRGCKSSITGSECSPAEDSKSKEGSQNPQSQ
Chain of Acetylcholinesterase (P22303 whole entry): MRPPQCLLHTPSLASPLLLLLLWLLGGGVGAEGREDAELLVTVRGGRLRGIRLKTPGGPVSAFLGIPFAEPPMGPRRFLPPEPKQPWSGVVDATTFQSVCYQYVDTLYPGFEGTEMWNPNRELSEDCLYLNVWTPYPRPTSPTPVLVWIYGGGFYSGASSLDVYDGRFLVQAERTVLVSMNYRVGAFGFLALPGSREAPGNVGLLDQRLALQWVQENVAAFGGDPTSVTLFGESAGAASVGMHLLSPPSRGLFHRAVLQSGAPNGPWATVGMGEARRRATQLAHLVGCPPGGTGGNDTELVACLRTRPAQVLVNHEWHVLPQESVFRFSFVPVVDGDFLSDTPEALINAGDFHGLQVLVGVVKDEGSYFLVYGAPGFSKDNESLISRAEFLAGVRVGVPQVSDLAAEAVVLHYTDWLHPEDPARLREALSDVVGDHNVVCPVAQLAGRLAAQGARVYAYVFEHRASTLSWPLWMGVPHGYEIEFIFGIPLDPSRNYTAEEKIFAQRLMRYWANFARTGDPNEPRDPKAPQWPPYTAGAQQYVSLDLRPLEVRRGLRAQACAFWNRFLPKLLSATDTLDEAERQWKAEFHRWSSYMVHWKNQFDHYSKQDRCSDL
Chain of Mu-type opioid receptor (P35372 whole entry): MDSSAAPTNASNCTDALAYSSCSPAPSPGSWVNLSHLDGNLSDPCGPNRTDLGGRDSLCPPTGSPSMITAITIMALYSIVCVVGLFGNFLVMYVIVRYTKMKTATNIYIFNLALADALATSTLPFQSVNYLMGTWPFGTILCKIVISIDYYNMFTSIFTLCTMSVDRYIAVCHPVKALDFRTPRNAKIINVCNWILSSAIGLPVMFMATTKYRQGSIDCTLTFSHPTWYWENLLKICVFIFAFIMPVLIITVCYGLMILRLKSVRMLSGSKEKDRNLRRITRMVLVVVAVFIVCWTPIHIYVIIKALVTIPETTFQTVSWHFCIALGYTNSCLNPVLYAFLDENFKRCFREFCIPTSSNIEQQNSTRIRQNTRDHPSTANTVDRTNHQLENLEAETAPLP

CC[C@@]1(O)C(=O)OCc2c1cc1n(c2=O)Cc2cc3ccccc3nc2-1 [CAMPTOTHECIN]
Not Active: IC50 [1] | IC50 [2] | IC50 [3] | Ki [3] | IC50 [4] | IC50 [5] | Ki [5] | IC50 [6] | IC50 [7] | IC50 [8] | IC50 [9] | IC50 [10] | Ki [10] | IC50 [11] | IC50 [12] | IC50 [13]

CC(=O)O[C@]1(C(C)=O)CC[C@H]2[C@@H]3C=C(Cl)C4=CC(=O)CC[C@]4(C)[C@H]3CC[C@@]21C [CHLORMADINONE ACETATE]
Not Active: IC50 [1] | IC50 [2] | IC50 [3] | Ki [3] | IC50 [4] | IC50 [5] | Ki [5] | IC50 [6] | IC50 [7] | IC50 [8] | IC50 [9] | IC50 [10] | Ki [10] | IC50 [11] | IC50 [12] | IC50 [13]

C[C@]12CCC(=O)C=C1CC[C@@H]1[C@@H]2C(=O)C[C@@]2(C)[C@H]1CC[C@]2(O)C(=O)CO [CORTISONE]
Not Active: IC50 [1] | IC50 [2] | IC50 [3] | Ki [3] | IC50 [4] | IC50 [5] | Ki [5] | IC50 [6] | IC50 [7] | IC50 [8] | IC50 [9] | IC50 [10] | Ki [10] | IC50 [11] | IC50 [12] | IC50 [13]

Brc1ccccc1 [BROMOBENZENE]
Not Active: IC50 [1] | IC50 [2] | IC50 [3] | Ki [3] | IC50 [4] | IC50 [5] | Ki [5] | IC50 [6] | IC50 [7] | IC50 [8] | IC50 [9] | IC50 [10] | Ki [10] | IC50 [11] | IC50 [12] | IC50 [13]

CC(=O)[C@@]1(O)CC[C@H]2[C@@H]3C[C@H](C)C4=CC(=O)C=C[C@]4(C)[C@@]3(F)[C@@H](O)C[C@@]21C [FLUOROMETHOLONE]
Not Active: IC50 [1] | IC50 [2] | IC50 [3] | Ki [3] | IC50 [4] | IC50 [5] | Ki [5] | IC50 [6] | IC50 [7] | IC50 [8] | IC50 [9] | IC50 [10] | Ki [10] | IC50 [11] | IC50 [12] | IC50 [13]

Nc1nc2c(ncn2COC(CO)CO)c(=O)[nH]1 [GANCICLOVIR]
Not Active: IC50 [1] | IC50 [2] | IC50 [3] | Ki [3] | IC50 [4] | IC50 [5] | Ki [5] | IC50 [6] | IC50 [7] | IC50 [8] | IC50 [9] | IC50 [10] | Ki [10] | IC50 [11] | IC50 [12] | IC50 [13]
